Data from article PMC11061832, “Antiviral Rotenoids and Isoflavones Isolated from Millettiaoblata ssp. teitensis” (Journal of Natural Products, 2024).
Entries after “also recorded” stand apart in the source; their conditions may differ.

Columns and labels:
in vitro = details: human
Protocol: (§1) The extracts and the isolated compounds were tested for antiviral activity against RSV by the viral plaque reduction assay in cultures of HEp-2 cells (Table 3, Supporting Information). A tetrazolium-based cytotoxicity assay on HEp-2 cells was also performed to exclude that the anti-RSV activity was a result of general cytotoxicity. The cytotoxicity assay was complemented by microscopy observation of the compound- and extract-treated cells to detect possible cytostatic activity, such as poor cell growth and/or altered cell shape that may affect antiviral activity. […] At this stage, it is difficult to assess whether the cytostatic activity of these specific compounds contributed to the protection of cells against virus infection, and accordingly the specificity of anti-RSV action of 9 and 13 requires further investigation. An attempt was made to address this issue by testing cytotoxic activities of the most promising compounds in human embryonic lung fibroblasts (HELFs), i.e., primary cells derived from lung interstitium.
(§2) HEp-2 cells were cultivated in Dulbecco’s modified Eagle’s medium (DMEM) supplemented with 8% fetal calf serum and 292 μg/mL of L-glutamine. Human adenocarcinoma cells of uterine cervix (HeLa) were grown in Eagle’s minimum essential medium supplemented with 5% fetal calf serum and antibiotics. HELFs were grown in Eagle’s minimum essential medium supplemented with 5% fetal calf serum, L-glutamine, and antibiotics. The A2 strain of RSV (ATCC VR-1540) was used. The RSV stock was prepared and stored as described previously by Lundin et al.[50] In some experiments, strain HGP of HRV-2 (ATCC, VR-482) was used.
(§3) The tetrazolium-based cytotoxicity assay using a CellTiter 96 Aqueous One solution reagent (Promega) was performed for the test extracts and isolated compounds in HEp-2, HELFs, and HeLa cells as described previously.[50]
(§4) Figure S130. Cell viability in presence of the crude extracts of leaves and root heart of Milletia oblata ssp teitensis. The HEp-2 cells were incubated for 3 days at 37 °C with specific concentration of test extract. After addition of the tetrazolium (MTS)-based reagent the absorbance was recorded at 490 nm. The results are expressed as a percentage of absorbance developed in extract treated cells relative to DMSO treated controls. […]

RSV = RSV plaque reduction assay in HEp-2 cells; details: for SI (CC50/IC50): CC50 HEp-2 / anti-RSV IC50; for IC50: human respiratory syncytial virus, HEp-2, 72 h, read-out: anti-RSV activity IC50
Protocol: as §1
Human adenocarcinoma cells of uterine cervix (HeLa) were grown in Eagle’s minimum essential medium supplemented with 5% fetal calf serum and antibiotics. HELFs were grown in Eagle’s minimum essential medium supplemented with 5% fetal calf serum, L-glutamine, and antibiotics. […] The RSV stock was prepared and stored as described previously by Lundin et al.[50]
The RSV plaque reduction assay was performed as described previously[27],[51] with some modifications. […] Following 15 min of incubation at 37 °C in a humidified atmosphere comprising 5% CO2 (incubator), the cells were inoculated with 50–100 plaque-forming units of RSV A2. After incubation of the virus–compound mixture with cells for 2.5 h in the CO2 incubator, the inoculum was removed and 750 μL of 1% methylcellulose solution in DMEM-M comprising the same concentration of test compound/extract was added and left for a further 3 days in the CO2 incubator. The cells were stained with a 1% solution of crystal violet, and the viral plaques were counted under a microscope.

HEp-2 cells [1] = assay: Microscopic recording of cytostatic activity in compound-treated HEp-2 cells; details: microscopy, PCP poor cell proliferation, ACS altered cell shape, PCS poor cell staining, concentration(s) at which seen in brackets
Protocol: as §1

[2] = Tetrazolium-based cytotoxicity assay in human embryonic lung fibroblasts; details: human
Protocol: as §1, §2, §3

HRV-2 = assay: Anti-HRV-2 tetrazolium-based cell protection assay in HeLa cells; set-up: species or system human rhinovirus 2 (strain HGP)
[3] = Tetrazolium-based cytotoxicity assay in HeLa cells; assay type: cell-based; details: human, 34 °C
Protocol: Figure S133. Anti-HRV-2 (IC50) of 3 of Milletia oblata ssp teitensis in HeLa cells. In the cell protection against HRV assay, the cells were incubated in the presence of specific concentrations of test compound for 3 h, then inoculated with HRV and incubated for further 3 days at 34°C. Two separate experiments were performed, and the cell protection against HRV-2 was calculated according to formula described in the Method section. In the cell viability assay, the cells were incubated with test compound for 3 days at 34°C. For further explanations see legend to Figure S130.
Table S1. Anti-RSV activity, cytotoxicity for HEp-2 cells, and selectivity indices (SI) of Milletia oblata extracts. For explanations see legend to Table 3.
Compound/extract Anti-RSV activity Cytotoxicity SI […]
Root wood extract 3.4 66 PCS (8 µg/mL) 19.4
(1 picture or pasted object on this page, not shown here)

[4] = test system: human embryonic lung fibroblasts (HELFs); assay: Tetrazolium-based cytotoxicity assay in human embryonic lung fibroblasts; details: primary lung fibroblasts
Protocol: as §1, §2, §3

HEp-2 cells [5] = assay: Tetrazolium-based cytotoxicity assay in HEp-2 cells; details: read-out: cytotoxicity CC50; HEp-2 cells, tetrazolium-based assay
Protocol: as §1, §2, §3, §4

[6] = cytotoxicity CC50, HEp-2 cells, tetrazolium-based assay
[7] = HEp-2 cells, cytotoxicity CC50, HEp-2 cells, tetrazolium-based assay
[8] = human embryonic lung fibroblasts (HELFs), primary cells

Compound	CC50 (in vitro; [6]) [µM]	SI (CC50/IC50) (RSV)	IC50 (RSV) [µM]	CC50 at 3 days (in vitro; [7]) [µM]	cytotoxicity: cytostatic activity (HEp-2 cells [1])	other results
COc1cc2c(cc1OC)C(=O)[C@@]1(O)c3cc4c(cc3OC[C@H]1O2)OCO4 [Compound 2, (6aR,12aR)-9,10-dimethoxy-2,3-methylenedioxy-12a-hydroxyrotenoid]	> 100	1.0	> 100	–	–	–
CC(C)=CCOc1ccc(-c2coc3c4c(ccc3c2=O)OC(C)(C)C=C4)cc1 [Compound 13, isoerythrin-A-4′-prenyl ether]	–	>47.6	2.1	> 100	cytostatic activity at concentrations close to their IC50 values; also recorded: PCS (4.0, 20.0, and 100.0 μM)	CC50 [2, 8]: 9 µM
COc1ccc2c(=O)c(-c3cc4c(cc3OC)OCO4)coc2c1 [Compound 15, aglycuneatin methyl ether]	–	6.5	10	65	PCS (20.0 μM)	CC50 [2, 8]: 47.1 µM
COc1ccc2c(=O)c(-c3cc(OC)c4c(c3OC)OCO4)coc2c1 [Compound 12, 7,2′,5′-trimethoxy-3′,4′-methylenedioxyisoflavone]	–	1.0	> 100	> 100	–	–
COc1ccc2c(=O)c3c(oc2c1)COc1cc2c(cc1-3)OCO2 [Compound 3, 9-methoxy-2,3-methylenedioxy-6a-2a-dehydrorotenoid]	–	4.1	22	90	–	SI (HRV-2; CC50 HeLa / anti-HRV-2 IC50): 11.4; IC50 (HRV-2; Rhinovirus A, HRV2, 72 h, protection of HeLa cells against HRV-2 infection, 3 days, 34 °C): 4.2 µM; CC50 at 3 days [3]: 48 µM; CC50 [2, 8]: > 100 µM; cytotoxicity (in words) [4]: low cytotoxicity
COc1ccc2c(c1)O[C@@H]1COc3cc(OC)c(OC)cc3[C@]1(O)C2=O [Compound 8, 12a-hydroxymunduserone]	> 26.5	28.0	1.5	–	PCS (20.0 μM)	CC50 (HEp-2 cells [5]): 42 µM; CC50 [2]: 4.8 µM
CC1(C)C=Cc2c(ccc3c(=O)c(-c4ccc5c(c4)OCO5)coc23)O1 [Compound 16, calopogonium isoflavone B]	–	1.0	> 100	> 100	–	–
COc1ccc2c(c1)O[C@@H]1COc3c(cc(OC)c4c3OCO4)[C@@H]1C2=O [Compound 1, (6aS,12aS)-2,9-dimethoxy-3,4-methylenedioxyrotenoid]	> 100	1.0	> 100	–	–	–
CC(C)=CCOc1ccc(-c2coc3c4c(cc(O)c3c2=O)OC(C)(C)C=C4)cc1 [Compound 14, 4′-prenyloxyderrone]	–	>10	10	–	PCS (100.0 μM)	CC50 [2, 8]: > 100 µM; cytotoxicity (in words) [4]: low cytotoxicity
COc1c(O[C@@H]2O[C@H](CO[C@H]3O[C@H](C)[C@@H](O)[C@H](O)[C@@H]3O)[C@@H](O[C@@H]3O[C@H](CO[C@H]4O[C@H](C)[C@@H](O)[C@H](O)[C@@H]4O)[C@@H](O)[C@H](O)[C@H]3O)[C@H](O)[C@H]2O)cc2c(=O)c(-c3ccc4c(c3)OCO4)coc2c1OC [Compound 4, isoplatycarpanetin-6-O-β-glucosyl-(7″→1‴′)-α-rhamnosyl-(4″→1‴)-β-glucosyl-(7‴→1‴′)-α-rhamnoside]	–	1.0	> 100	> 100	–	–
COc1ccc2c(c1)O[C@@H]1COc3cc4c(cc3[C@@H]1C2=O)OCO4 [Compound 5, oblarotenoid C]	> 100	>1.9	53	–	–	–
CC1(C)C=Cc2c(ccc(C(=O)/C=C/c3ccc(O)cc3)c2O)O1 [Compound 19, isobavachromene]	–	<2.5	> 0.8	2	–	–
COc1cc2c(cc1OC)[C@@H]1C(=O)c3ccc4c(c3O[C@@H]1CO2)C=CC(C)(C)O4 [Compound 10, deguelin]	> 26.5	–	0.4	–	PCS (4.0 μM)	CC50 (HEp-2 cells [5]): 26.5 µM; CC50 [2]: 0.3 µM
COc1cc2c(cc1OC)[C@]1(O)C(=O)c3ccc4c(c3O[C@@H]1CO2)C=CC(C)(C)O4 [Compound 9, tephrosin]	–	15.6	0.8	–	cytostatic activity at concentrations close to their IC50 values; also recorded: PCS (0.8 and 4.0 μM)	CC50 at 3 days (in vitro): 12.5 µM
COc1ccc2c(c1)O[C@@H]1COc3c(cc(OC)c4c3OCO4)[C@]1(O)C2=O [Compound 7, oblarotenoid D]	6.7	3.8	1.8	–	–	–
COc1cc2c(cc1-c1coc3cc(O)ccc3c1=O)OCO2 [Compound 17, maximaisoflavone G]	–	1.0	> 100	> 100	–	–
NC(=O)c1ncn([C@@H]2O[C@H](CO)[C@@H](O)[C@H]2O)n1 [ribavirin, reference compound]	–	–	10.6	–	–	CC50 at 3 days (in vitro; cytotoxicity CC50): > 100 µM
COc1cc2c(cc1-c1coc3c4c(c(OC)cc3c1=O)OC(C)(C)C=C4)OCO2 [Compound 11, ichthynone]	–	11.4	8	–	PCS (20.0 μM)	CC50 [2, 8]: > 100 µM; cytotoxicity (in words) [4]: low cytotoxicity
COc1ccc2c(c1)O[C@@H]1COc3cc4c(cc3[C@]1(O)C2=O)OCO4 [Compound 6, oblarotenoid A]	> 26.5	35.7	1.4	–	PCS (20.0 μM)	CC50 (HEp-2 cells [5]): 50 µM; CC50 [2]: 1.3 µM
